Measurements: patent publication US20130046012A1, “NEW COMPOUNDS, SYNTHESIS AND USE THEREOF IN THE TREATMENT OF PAIN” (LACER, S.A., priority 2010, published 2013)
Where a name gives a salt, the structure may show the parent alone.

What was measured:
[1] = system: Male Swiss mice; assay: Hot plate method (acute pain model); assay type: in vivo; conditions: Mus musculus, oral, 30 minutes before test, hot surface 55° C, dose producing 50% MPE, cutoff 60 seconds, read-out: HOT PLATE (ED50, p.o)
Experimental: The activity of some of the products was also tested using an acute pain model by using the hot plate method.
The method that was used is described by Eddy N. B. and Leimbach D. (J. Pharm. Exp. Ther. 107: 385-393, 1953). The analgesic effect of the products was evaluated analyzing the behavior of the animals on a hot surface at 55° C±1° C.
Male Swiss mice weighing 20-25 g were used. The compounds being tested were administered orally 30 minutes before starting the test.
The process consisted of placing the animals on the plate and keeping them in a Plexiglas cylinder 25 cm high and 21 cm […]. The time the animals took to jump off the hot surface was determined The animals were selected before starting the test so that those that took longer than 10 seconds to jump off (predrug latency) were not included in the group that would receive treatment.
A predrug latency time was determined before product treatment in all animals and 30 minutes after administering the product being tested, the test was repeated and the maximum time it took the animals to jump off (test latency) was again recorded.
The results are expressed in the table as ED50 that was calculated from % MPE (Maximum Posible Effect) determined as follows:
% MPE=100×(test latency−predrug latency)/(cutoff time−predrug latency)
The % MPE was measured for each compound at different dose levels (μmol/kg) and the ED50 values (dose of compound that produced 50% MPE) were obtained using a computer assisted linear regression analysis of the dose-response curve, including an analysis of variance test for linearity.

[2] = system: Male Swiss mice; assay: Formalin test (analgesic activity, licking time of the injected paw); assay type: in vivo; conditions: p.o. 10 min before 5% formalin injection into hind paw, second phase (15-60 min), % inhibition of licking vs. control, Litchfield and Wilcoxon; for ED50: Mus musculus, po, read-out: FORMALIN TEST (ED50 p.o) Phase II
Experimental: The pharmacological activity of the products of the present invention was tested in vivo in formalin test model, which is known to evaluate neuropathic and inflammatory pain in animals.
The formalin test was introduced as a model of tonic pain in 1977, and has since […] been used extensively in rats and mice. In rats, formalin generates an initial phase of activity (5-10 min, phase 1), a quiescent interphase (5-10 min), and a second phase of activity (lasting 60-90 min, phase 2), and this is seen with spontaneous behaviors, firing of afferent neurons, and activity in dorsal horn neurons. Both active phases involve ongoing peripheral afferent neural activity; inflammation contributes to phase 2 activity and the interphase results from active inhibition. Responses are concentration dependent between 0.25% and 2.5%, plateau from 2.5% to 5%, and can decline at higher concentrations. Formalin also results in tissue edema, and this is longer lasting. Responses to formalin up to 2.5% are predominantly neurogenic, while at higher concentrations, responses involve a further prominent inflammatory component. Within the spinal cord, formalin increases c-Fos expression in neurons and causes activation of microglia, and these may contribute more prominently to longer term changes. Acute responses (to 90 min) may represent a model of ongoing acute pain involving inflammation and aspects of central sensitization, while longer term responses (days, weeks) may represent a model of changes involved in persistent pathological pain.
Male Swiss mice (weight range, 16-20 g) were used (n=6-8 per group).Mice were fasted for 3 hours before the administration of oral treatment with free access to drinking water before the experiment. All experiments were conducted in accordance with the “Guidelines on Ethical Standards for Investigation of Experimental Pain in Animals
Mice were housed in clear plastic chambers with a mirror placed at a 45° angle to allow an unobstructed view of the paws. Mice were injected into the dorsal surface of hind paw with 20 μl of dilute formalin (5%) using a 30-gauge needle. Treatments were administrated p.o. 10 min before formalin injection.
Nociceptive behavior was quantified measuring time spent licking the injected paw after injection.
For evaluation of antinociceptive effect of a potential drug for neuropathic pain, the quantization of the second phase of the test (15-60 min) is the most important. Controls animals were observed under identical conditions without receiving treatments before formalin injection.
For each dose of compound given the % inhibition of licking vs. control animals were calculated. ED50 was calculated using the method of Litchfield and Wilcoxon. At the end of the experiments, mice were humanely euthanized with a dose of sodium pentobarbital (150 mg/kg i.p.).

SMILES	ED50 [1] [µmol/kg]	ED50 [2] [µmol/kg]	FORMALIN TEST (ED50 p.o) Phase II [2] [µmol/kg]
COc1cccc([C@@]2(O)CCCC[C@@H]2CN(C)C)c1 (relative stereo) [Tramadol hydrochloride, (1R,2R)-rel-2-[(dimethylamino)methyl]-1-(3-methoxyphenyl) cyclohexanol, reference compound]	66	139	–
COc1cccc([C@@]2(O)CCCC[C@@H]2CN(C)C)c1 (single isomer, unassigned) [Tramadol Enantiomer R,R, reference compound]	–	–	126.6
COc1cccc([C@]2(O)CCCC[C@H]2CN(C)C)c1 (single isomer, unassigned) [Tramadol Enantiomer S,S, reference compound]	–	–	233.3
CN(C)CC1CCCCC1(O)c1cccc(OC(=O)CC2(CNC(=O)OC(C)(C)C)CCCCC2)c1 (centres unmarked) [Product of example 1, (1R2R, 1S25)-3-(2-((dimethylamino)methyl)-1-hydroxycyclohexyl)phenyl 2-(1-((tert-butoxycarbonylamino)methyl)cyclohexyl)acetate]	35.7	39.9	–
CN(C)C[C@H]1CCCC[C@]1(O)c1cccc(OC(=O)CC2(CNC(=O)OC(C)(C)C)CCCCC2)c1 [Product of example 2]	8	17.2	–
CN(C)C[C@@H]1CCCC[C@@]1(O)c1cccc(OC(=O)CC2(CNC(=O)OC(C)(C)C)CCCCC2)c1 [Product of example 3]	–	65.9	–
CCOC(=O)NCC1(CC(=O)Oc2cccc(C3(O)CCCCC3CN(C)C)c2)CCCCC1 (centres unmarked) [Product of example 4, (1R2R, 1S2S) 3-(2-((dimethylamino)methyl)-1-hydroxycyclohexyl)phenyl 2-(1-((ethoxycarbonylamino)methyl)cyclohexyl)acetate]	26.3	19	–
CCOC(=O)NCC1(CC(=O)Oc2cccc([C@@]3(O)CCCC[C@@H]3CN(C)C)c2)CCCCC1 [Product of example 5, 3-((1R,2R)-2-((dimethylamino)methyl)-1-hydroxycyclohexyl)phenyl 2-(1-((ethoxycarbonylamino)methyl)cyclohexyl)acetate]	–	6	–
CCOC(=O)NCC1(CC(=O)Oc2cccc([C@]3(O)CCCC[C@H]3CN(C)C)c2)CCCCC1 [Product of example 13, 3-((1S,2S)-2-((dimethylamino)methyl)-1-hydroxycyclohexyl)phenyl 2-(1-((ethoxycarbonylamino)methyl)cyclohexyl)acetate]	–	28	–
COC(=O)NCC1(CC(=O)Oc2cccc(C3(O)CCCCC3CN(C)C)c2)CCCCC1 (centres unmarked) [Product of example 14, (1R2R, 1S2S) 3-(2-((dimethylamino)methyl)-1-hydroxycyclohexyl)phenyl 2-(1-((methoxycarbonylamino)methyl)cyclohexyl)acetate]	–	44.5	–
CC(C)OC(=O)NCC1(CC(=O)Oc2cccc(C3(O)CCCCC3CN(C)C)c2)CCCCC1 (centres unmarked) [Product of example 15, (1R2R, 1S2S) 3-(2-((dimethylamino)methyl)-1-hydroxycyclohexyl)phenyl 2-(1-((isopropoxycarbonylamino)methyl)cyclohexyl)acetate]	–	57.9	–
CN(C)CC1CCCCC1(O)c1cccc(OC(=O)CC2(CNC(=O)OCc3ccccc3)CCCCC2)c1 (centres unmarked) [Product of example 16, (1R2R, 1S2S)3(2-((dimethylamino)methyl)-1-hydroxycyclohexyl)phenyl 2-(1-((benzyloxycarbonylamino)methyl)cyclohexyl)acetate]	–	37.9	–
CN(C)CC1CCCCC1(O)c1cccc(OC(=O)CC2(CNC(=O)Oc3ccccc3)CCCCC2)c1 (centres unmarked) [Product of example 17, (1R2R, 1S2S)3(2-((dimethylamino)methyl)-1-hydroxycyclohexyl)phenyl 2-(1-((phenoxycarbonylamino)methyl)cyclohexyl)acetate]	–	39	–
CC(=O)NCC1(CC(=O)Oc2cccc(C3(O)CCCCC3CN(C)C)c2)CCCCC1 (centres unmarked) [Product of example 18, (1R2R, 1S2S)3(2-((dimethylamino)methyl)-1-hydroxycyclohexyl)phenyl 2-(1-(acetamidomethyl)cyclohexyl)acetate]	–	30.4	–
CCOC(=O)NCC1(CC(=O)Oc2cccc(C3=C(CN(C)C)CCCC3)c2)CCCCC1 [Product of example 19, 3-(2-((dimethylamino)methyl)cyclohex-1-enyl)phenyl 2-(1-((ethoxycarbonylamino)methyl)cyclohexyl)acetate]	–	62.7	–
CCOC(=O)NCC1(CC(=O)Oc2cccc(C3=CCCCC3CN(C)C)c2)CCCCC1 (centres unmarked) [Product of example 20, 3-(6-((dimethylamino)methyl)cyclohex-1-enyl)phenyl 2-(1-((ethoxycarbonylamino)methyl)cyclohexyl)acetate]	–	59.7	–
CCOC(=O)NCC1(CC(=O)Oc2cccc([C@@H](CC)[C@@H](C)CN(C)C)c2)CCCCC1 [Product of example 22, 3-((2R,3S)-1-(dimethylamino)-2-methylpentan-3-yl)phenyl 2-(1-((ethoxycarbonylamino)methyl)cyclohexyl)acetate]	–	30.4	–
CCOC(=O)NC[C@H](CC(=O)Oc1cccc(C2(O)CCCCC2CN(C)C)c1)CC(C)C (stereo partly drawn) [Product of example 23, (1R2R, 1S2S)-(S)-3-(2-((dimethylamino)methyl)-1-hydroxycyclohexyl)phenyl 3-((ethoxycarbonylamino)methyl)-5-methylhexanoate]	–	75.2	–
CCOC(=O)NC[C@H](CC(=O)Oc1cccc([C@@]2(O)CCCC[C@@H]2CN(C)C)c1)CC(C)C [Product of example 24, (S)-3-((1R,2R)-2-((dimethylamino)methyl)-1-hydroxycyclohexyl)phenyl 3-((ethoxycarbonylamino)methyl)-5-methylhexanoate]	–	56.9	–
